The values below come from paper PMC6572618, “Anti-Trypanosomal and Antimalarial Properties of Tetralone Derivatives and Structurally Related Benzocycloalkanones” (Medicina, 2019).

What all share (type): cell-based
The test system of data set [1] is 427 Trypanosoma brucei brucei trypomastigotes. Description: In vitro anti-trypanosomal assay (resazurin). The conditions noted are these: 48 h; for viability at 20 µM / % Viability at 20 µM (SD) T.b. brucei: 20 µM compound, % parasite viability relative to untreated control; for viability at 20 µM: read-out: % Viability at 20 µM (SD) T.b. brucei; for IC50: three-fold serial dilutions from 100 µM, read-out: IC50 (µM) T. b. brucei. The procedure: The activity of the compounds against 427 Trypanosoma brucei brucei trypomastigotes was determined as previously described. Briefly, parasites were incubated in 96-well plates with 20 µM or three-fold serial dilutions (100 µM starting concentration) of test compounds in Iscove’s modified Dulbecco’s medium (IMDM) (Lonza, Basel, Switzerland) supplemented with 10% fetal calf serum, HMI-9 supplement, hypoxanthine, and penicillin/streptomycin at 37 °C in a 5% CO2 incubator. After 48 h, 20 µL of resazurin reagent (0.135 mg/mL resazurin in phosphate-buffered saline) was added to each well and the fluorescence (Ex560/Em590) read after 2–4 h in a Spectramax M3 plate reader (Molecular Devices, San Jose, CA, USA). The fluorescence readings were used to calculate % parasite viability relative to the readings obtained from the wells containing untreated control parasite cultures. The IC50 values were determined by plotting % viability vs. log(compound) and performing a non-linear regression using a GraphPad Prism (v. 5.02) (San Diego, CA, USA).
(§1) Thirty-five tetralone derivatives (see Figure 2) and six related benzocycloalkanones (see Figure 3) were evaluated in vitro against T. b. brucei for antitrypanosomal activity through the resazurin assay protocol. The compounds were also evaluated against the chloroquine-sensitive strain (3D7) of P. falciparum for antimalarial activity using pLDH assay and against the HeLa cell line for cytotoxicity evaluation using the resazurin assay protocol.
In general terms: The colour change of resazurin is a common sign of viable cells or microbes.

The nature of data set [2]: In vitro cytotoxicity assay (resazurin). Conditions: human, 20 µM compound, 24 h, % cell viability relative to untreated control, read-out: % Viability at 20 µM (SD) HeLa Cell. The procedure: (§2) As previously described, HeLa cells (Cellonex, Johannesburg, South Africa) were seeded in 96-well plates at a density of 2 × 10^4 cells/well in Dulbecco’s modified Eagle’s medium (DMEM) (Lonza, Basel, Switzerland) supplemented with 10% fetal calf serum and antibiotics (penicillin/streptomycin/amphotericin B) and incubated overnight at 37 °C in a 5% CO2 incubator. Compounds were added to the cells at a final concentration of 20 µM, and incubation continued for 24 h. The cell viability in the wells was assessed by adding 20 µL of resazurin reagent (0.135 mg/mL resazurin in phosphate-buffered saline) and reading the fluorescence (Ex560/Em590) after an additional 2–4 h incubation. The fluorescence readings were converted to % cell viability relative to the average readings obtained from the untreated control wells.
as §1

Data set [3] concerns chloroquine sensitive strain of P. falciparum (3D7). Description: In vitro antiplasmodial assay (parasite lactate dehydrogenase, pLDH). Conditions: for viability at 20 µM: Plasmodium falciparum, 3D7, 48 h, read-out: % Viability at 20 µM (SD) 3D7. How it is done: An antimalarial evaluation was performed against the chloroquine sensitive strain of P. falciparum (3D7) using the parasite lactate dehydrogenase (pLDH) assay as previously reported. Parasites were seeded at 2% parasitemia and 1% hematocrit in 96 well plates and were incubated with 20 µM of the test compounds for 48 h in culture medium consisting of Rosell Park Memorial Institute (RPMI 1640; Lonza, Basel, Switzerland) containing 25 mM 4-(2-hydroxyethyl)-1-piperazineethanesulfonic acid (HEPES), supplemented with 0.5% (w/v) Albumax II, 22 mM glucose, 0.65 mM hypoxanthine, 0.05mg/mL gentamicin, and 1% (v/v) human erythrocytes, at 37 °C under an atmosphere of 5% CO2, 5% O2, and 90% N2. The parasite lactate dehydrogenase activity in the wells was determined using the colorimetric assay method of Makler et al.. The absorbance readings were converted to % parasite viability relative to the wells containing untreated parasites.
as §1

Data set [4] relates to HeLa cells. Description: In vitro cytotoxicity assay (resazurin). The conditions noted are these: 20 µM compound, 24 h, % cell viability relative to untreated control. How it is done:
as §2, §1

Setting [5] is: 20 µM compound, 48 h, P. falciparum 3D7, % parasite viability relative to untreated parasites.

Where two headings read alike, the source gives them in different places. A value given as a limit tells only on which side of the number the result lay.

In general, viability refers to a read-out of living cells in per cent, often relative to untreated cells. Broadly, the IC50 is the concentration that inhibits the measured activity by half. On to `N#Cc1cccc(/C=C2\CCc3ccccc3C2=O)c1` [Compound 1], for which, in data set [1] (Trypanosoma brucei), the viability at 20 µM is 0.06% and the IC50 was 2.3 µM. For the same compound, the viability at 24 h, 20 µM in data set [2] (HeLa cells) was 87%. The viability at 20 µM in data set [3] (setting [5]) is 113%.

In the case of `COc1ccc(/C=C2\CCc3ccccc3C2=O)cc1` [Compound 4], the values for the viability at 20 µM in data set [1] (Trypanosoma brucei) and in data set [3] (setting [5]) were 0.5% and 100%, respectively. Also, the 50% inhibitory concentration (IC50) in data set [1] (Trypanosoma brucei) came out at 6.7 µM. In addition, the viability at 24 h, 20 µM in data set [2] (HeLa cells) was 76%.

Take `O=C1/C(=C/c2cccc(F)c2)CCc2ccccc21` [Compound 6]: in data set [1] (Trypanosoma brucei), the viability at 20 µM worked out at 0.5% and the IC50 came to 3.1 µM. For the same compound, the viability at 24 h, 20 µM in data set [2] (HeLa cells) stood at 121%. The viability at 20 µM in data set [3] (setting [5]) stood at 131%.

In the case of `O=C1/C(=C/c2ccccc2)CCc2cc(O)ccc21` [Compound 7], the “% Viability at 20 µM (SD) T.b. brucei” value in data set [1] (20 µM) is recorded as 0.6 (0.2) %. Also, the viability at 20 µM in data set [1] (Trypanosoma brucei) amounted to 0.66%; in data set [3] (setting [5]), 89%. For the same compound, the IC50 is 0.4 µM in data set [1] (Trypanosoma brucei) and 0.46 µM in data set [1]. Moreover, the viability at 24 h, 20 µM in data set [2] (HeLa cells) came out at 54%.

Consider `COc1ccc2c(c1)C(=O)/C(=C/c1ccccc1)CC2` [Compound 10], for which the IC50 in data set [1] (Trypanosoma brucei) was 1.04 µM. In addition, the viability at 24 h, 20 µM in data set [2] (HeLa cells) worked out at 65%. Besides, in data set [3] (setting [5]), the viability at 20 µM came to 113%.

Regarding `O=C1/C(=C/c2ccc(F)cc2)CCc2ccc(O)cc21` [Compound 12], in data set [1] (Trypanosoma brucei), the viability at 20 µM was -0.6% and the IC50 was 0.6 µM. Further, in data set [1], the IC50 was found to be 0.68 µM. Moreover, the viability at 24 h, 20 µM in data set [2] (HeLa cells) is 29%.

On to `O=C1/C(=C/c2ccc(Br)cc2)CCc2ccc(O)cc21` [Compound 16], for which the viability at 20 µM in data set [1] (Trypanosoma brucei) turned out to be 0.1%; in data set [3] (setting [5]) it was 43%. The IC50 in data set [1] (Trypanosoma brucei) was found to be 1.24 µM. Besides, the viability at 24 h, 20 µM in data set [2] (HeLa cells) amounted to 62%.

On to `Cc1ccc(/C=C2\CCc3ccc(O)cc3C2=O)cc1` [Compound 20], for which, in data set [1] (Trypanosoma brucei), the viability at 20 µM is -0.4% and the IC50 worked out at 5.3 µM. Besides, the viability at 24 h, 20 µM in data set [2] (HeLa cells) came to 69%. Besides, in data set [3] (setting [5]), the viability at 20 µM was found to be 116%.

In the case of `O=C1/C(=C/c2cccnc2)CCc2ccccc21` [Compound 25], in data set [1], the “% Viability at 20 µM (SD) T.b. brucei” value was −0.7 (0.4) %. Further, in data set [4], the “% Viability at 20 µM (SD) HeLa Cell” value is on record as 24 (0.4) %. For the same compound, the “% Viability at 20 µM (SD) 3D7” value in data set [3] is on record as 29 (12) %.

Regarding `COc1ccc2c(c1)C(=O)/C(=C/C1CCCCC1)CC2` [Compound 26], the values for the viability at 20 µM in data set [1] (Trypanosoma brucei) and in data set [3] (setting [5]) were less than 1% and 119%, respectively. For the same compound, in data set [2] (HeLa cells), the viability at 24 h, 20 µM was determined as 92%.

In the case of `COc1ccc2c(c1)C(=O)/C(=C/C1CCCC1)CC2` [Compound 27], in data set [1] (Trypanosoma brucei), the viability at 20 µM was less than 1% and the IC50 came to 5.4 µM. Also, the viability at 24 h, 20 µM in data set [2] (HeLa cells) worked out at 85%. For the same compound, the viability at 20 µM in data set [3] (setting [5]) was found to be 81%.

Consider `COc1ccc2c(c1)C(=O)/C(=C/c1ccco1)CC2` [Compound 28], for which the “% Viability at 20 µM (SD) T.b. brucei” value in data set [1] is reported as 31 (5) %. Moreover, the “% Viability at 20 µM (SD) HeLa Cell” value in data set [4] is given as 97 (9) %. Moreover, the “% Viability at 20 µM (SD) 3D7” value in data set [3] was 100 (3) %.

Turning to `COc1ccc2c(c1)C(=O)/C(=C/c1ccc[nH]1)CC2` [Compound 29], the “% Viability at 20 µM (SD) T.b. brucei” value in data set [1] is on record as 103 (1) %. Also, the “% Viability at 20 µM (SD) HeLa Cell” value in data set [4] is listed as 97 (5) %. The “% Viability at 20 µM (SD) 3D7” value in data set [3] is 115 (5) %.

Consider `COc1ccc2c(c1)C(=O)/C(=C/c1cccs1)CC2` [Compound 30], for which the “% Viability at 20 µM (SD) T.b. brucei” value in data set [1] is on record as 32 (9) %. The “% Viability at 20 µM (SD) HeLa Cell” value in data set [4] is 106 (2) %. Besides, the “% Viability at 20 µM (SD) 3D7” value in data set [3] is given as 107 (6) %.

With `COc1ccc2c(c1)C(=O)/C(=C/c1ccccn1)CC2` [Compound 33], the “% Viability at 20 µM (SD) T.b. brucei” value in data set [1] is recorded as −0.4 (0.2) %. Besides, the “% Viability at 20 µM (SD) HeLa Cell” value in data set [4] is recorded as 20 (0.6) %. The “% Viability at 20 µM (SD) 3D7” value in data set [3] was 7 (8) %.

Turning to `COc1ccc2c(c1)C(=O)/C(=C/c1cccnc1Cl)CC2` [Compound 34], the “% Viability at 20 µM (SD) T.b. brucei” value in data set [1] is 98 (2) %. The “% Viability at 20 µM (SD) HeLa Cell” value in data set [4] is 47 (1.7) %. In addition, the “% Viability at 20 µM (SD) 3D7” value in data set [3] is given as 113 (6) %.

As to `COc1ccc2c(c1)C(=O)/C(=C/c1ccsc1)CC2` [Compound 35], in data set [1] (Trypanosoma brucei), the viability at 20 µM is 22% and the IC50 amounted to 2.6 µM. In data set [2] (HeLa cells), the viability at 24 h, 20 µM came out at 122%. Besides, the viability at 20 µM in data set [3] (setting [5]) amounted to 86%.

Take `O=C1/C(=C/c2ccc(Cl)cc2)Cc2ccccc21` [Compound 36]: the “% Viability at 20 µM (SD) T.b. brucei” value in data set [1] (20 µM) was 99 (0.1) %. In addition, the “% Viability at 20 µM (SD) HeLa Cell” value in data set [4] is given as 74 (10) %. In data set [3], the “% Viability at 20 µM (SD) 3D7” value is 93 (3) %.

For `O=C1/C(=C/c2ccc(Cl)cc2)CCCc2ccccc21` [Compound 37], the “% Viability at 20 µM (SD) T.b. brucei” value in data set [1] (20 µM) is 0.3 (0.3) %. The “% Viability at 20 µM (SD) HeLa Cell” value in data set [4] is given as 53 (10) %. Further, in data set [3], the “% Viability at 20 µM (SD) 3D7” value is listed as 113 (0.6) %.

With `O=C1/C(=C/c2ccc(Cl)cc2)COc2ccccc21` [Compound 38], the “% Viability at 20 µM (SD) T.b. brucei” value in data set [1] (20 µM) is listed as 0.4 (0.2) %. Moreover, the IC50 in data set [1] (Trypanosoma brucei) came to 0.4 µM. For the same compound, the viability at 24 h, 20 µM in data set [2] is 75%. Further, in data set [3], the viability at 20 µM was found to be 98%.

As for `O=C1/C(=C/c2ccc(Cl)cc2)CSc2ccccc21` [Compound 39], the “% Viability at 20 µM (SD) T.b. brucei” value in data set [1] (20 µM) is on record as 0.3 (0.3) %. For the same compound, the “% Viability at 20 µM (SD) HeLa Cell” value in data set [4] is 8 (2) %. The “% Viability at 20 µM (SD) 3D7” value in data set [3] is listed as 11 (0.9) %.

Consider `O=c1c(Cc2ccc(Cl)cc2)coc2ccccc12` [Compound 40], for which, in data set [1] (20 µM), the “% Viability at 20 µM (SD) T.b. brucei” value is 94 (7) %. Further, the “% Viability at 20 µM (SD) HeLa Cell” value in data set [4] is given as 103 (3) %. The “% Viability at 20 µM (SD) 3D7” value in data set [3] was 90 (6) %.

With `O=c1c(Cc2ccc(Cl)cc2)csc2ccccc12` [Compound 41], in data set [1] (20 µM), the “% Viability at 20 µM (SD) T.b. brucei” value is given as 103 (0.3) %. In addition, in data set [4], the “% Viability at 20 µM (SD) HeLa Cell” value is given as 109 (7) %. Further, the “% Viability at 20 µM (SD) 3D7” value in data set [3] is 107 (5) %.
